The numbers were not newly measured in US20180168149A1, “INSECTICIDAL COMPOSITIONS” (HOMS, LLC, priority 2015, published 2018), which cites them from elsewhere.

The test system of the data set is male rats.

`C=C(C)[C@H]1CC=C(C)CC1` [d-limonene]: the “tumors on chronic exposure” value was “significant incidence of renal tubular tumors”.
